Laboratory results as given in patent publication EP0311473A1, “Fluorinated derivate of amino acids, useful as tensioactive or cotensioactive agents, and preparations for biomedical use containing these derivatives” (AP[…] […] TE[…] ATTA, priority 1987, dated 1989).

Experiments:
[1] = Surface tension of aqueous solutions of the fluorinated derivatives; assay type: physicochemical; conditions: solution in water, 20°C
Method: (§1) Pour illustrer le caractère fortement tensioactif des dérivés fluorés de l'invention, on a effectué des mesures à 20°C de la tension superficielle de solutions dans l'eau de ces dérivés, ainsi que de la tension interfaciale entre ces solutions et un composé perfluoré constitué par la perfluorodécaline.
(§2) On précise que dans les conditions de ces mesures: • - la tension superficielle de l'eau à 20°C est de 73,0± 0,2mN.m-^1, et • - la tension interfaciale entre l'eau et la perfluorodécaline à 20°C est de 56,0 ± 0,2 mN.m-^1.

[2] = Interfacial tension between aqueous solutions and perfluorodecalin; assay type: physicochemical; conditions: solution in water vs perfluorodécaline, 20°C
Method: as §1, §2

globules rouges humains = assay: Haemolysis test on human red blood cells; assay type: cell-based
souris = assay: Acute toxicity after intravenous administration to mice; assay type: in vivo
Method: Enfin, on a vérifié que les dérivés de l'invention ne présentaient pas de toxicité aigüe. Ainsi, l'administration intraveineuse à des souris, de 20 ml/kg des solutions à : • - 100 mg/I de (F-butyl-2')éthylbétaïne (ex. 4), • - 100 mg/l de (F-hexyl-2')éthylbétaïne (ex. 5), • - 100 mg/I de (F-octyl-2')éthylbétaïne (ex. 6), et • - 500 mg/I de (F-octyl-3"propylcarbamoyl)-4'butylbétaïne (ex. 14), dans de l'eau à 9 pour mille de NaCl, a été bien tolérée.

[3] = system: cultures cellulaires lymphoblastoïdes de la souche Namalva; assay: Biocompatibility on lymphoblastoid cell cultures (growth, multiplication, subculturing); assay type: cell-based
Excerpt: Pour tester la biocompatibilité des dérivés de l'invention, on a vérifié que ces dérivés n'avaient pas d'effet sur la croissance, la multiplication et le repiquage de cultures cellulaires lymphoblastoïdes de la souche Namalva.

[4] = solution 5 g/l in water with 9 per mille NaCl
[5] = 20 ml/kg of a 100 mg/l solution in water with 9 per mille NaCl
[6] = solution 1 g/l in water with 9 per mille NaCl
[7] = solution 500 mg/l in water with 9 per mille NaCl

Row | SMILES | Tension superficielle ([1]; concentration 0,01 g/l) | Tension superficielle ([1]; concentration 0,1 g/l) | Tension superficielle ([1]; concentration 1 g/l) | Tension interfaciale/ F-décaline ([2]; concentration 0,01 g/l) | Tension interfaciale/ F-décaline ([2]; concentration 0,1 g/l) | Tension interfaciale/ F-décaline ([2]; concentration 1 g/l) | hémolyse des globules rouges humains (globules rouges humains; [4]) | toxicité aigüe (tolérance) (souris; [5]) | croissance, multiplication et repiquage des cultures [3, 6] | hémolyse des globules rouges humains (globules rouges humains; [7]) | toxicité aigüe (tolérance) (souris; 20 ml/kg of a 500 mg/l solution in water with 9 per mille NaCl) | croissance, multiplication et repiquage des cultures [3, 7] | hémolyse des globules rouges humains (globules rouges humains; [6])
1 | O=C(O)CNC(=O)CCC(F)(F)C(F)(F)C(F)(F)C(F)(F)C(F)(F)C(F)(F)C(F)(F)C(F)(F)F [(F-octyl-3' propylcarbamoyl) éthanoate de sodium] | 43,2 mN.m^-1 | 38,8 mN.m^-1 | 21,6 mN.m^-1 | 41,3 mN.m^-1 | 25,2 mN.m^-1 | 7,1 mN.m^-1 | – | – | – | – | – | – | –
2 | C[N+](C)(C)C(CCC(F)(F)C(F)(F)C(F)(F)C(F)(F)C(F)(F)C(F)(F)F)C(=O)[O-] (centres unmarked) [(F-hexyl-2')éthyl bétaïne de l'Ex. 5, (F-hexyl-2')éthyl bétaïne] | – | 39,3 mN.m^-1 | 20,0 mN.m^-1 | – | 22,4 mN.m^-1 | 3,1 mN.m^-1 | ne provoquent pas l'hémolyse | bien tolérée | ne perturbent pas la croissance, la multiplication et le repiquage de ces cultures | – | – | – | –
3 | C[N+](C)(C)C(CCCCNC(=O)CCC(F)(F)C(F)(F)C(F)(F)C(F)(F)C(F)(F)C(F)(F)C(F)(F)C(F)(F)F)C(=O)[O-] (centres unmarked) [(triméthylammonio)-2 [(F-octyl)-3' propanoylamino] -6 hexanoate] | 22,8 mN.m^-1 | 19,7 mN.m^-1 | – | 5,2 mN.m^-1 | 3,6 mN.m^-1 | – | – | – | – | ne provoquent pas l'hémolyse | bien tolérée | ne perturbent pas la croissance, la multiplication et le repiquage de ces cultures | –
4 | C[N+](C)(C)C(CCC(F)(F)C(F)(F)C(F)(F)C(F)(F)C(F)(F)C(F)(F)C(F)(F)C(F)(F)F)C(=O)[O-] (centres unmarked) [(F-octyl-2')éthyl bétaïne de l'Ex. 6, (F-octyl-2')éthyl bétaïne] | 25,6 mN.m^-1 | 19,9 mN.m^-1 | 19,1 mN.m^-1 | 7,5 mN.m^-1 | 3,4 mN.m^-1 | 2,8 mN.m^-1 | – | bien tolérée | ne perturbent pas la croissance, la multiplication et le repiquage de ces cultures | – | – | – | ne provoquent pas l'hémolyse
5 | C[N+](C)(C)C(CCC(F)(F)C(F)(F)C(F)(F)C(F)(F)F)C(=O)[O-] (centres unmarked) [(F-butyl-2')éthyl bétaïne de l'Ex. 4, F-(butyl-2')éthyl bétaïne] | – | 68,4 mN.m^-1 | 49,3 mN.m^-1 | – | 48,0 mN.m^-1 | 34,5 mN.m^-1 | ne provoquent pas l'hémolyse | bien tolérée | ne perturbent pas la croissance, la multiplication et le repiquage de ces cultures | – | – | – | –
6 | C[C@H](CCC(=O)NC(CCC(F)(F)C(F)(F)C(F)(F)C(F)(F)C(F)(F)C(F)(F)F)C(=O)O)[C@H]1CC[C@H]2[C@@H]3[C@H](O)C[C@@H]4C[C@H](O)CC[C@]4(C)[C@H]3C[C@H](O)[C@]12C (some centres unmarked) | – | – | 28,5 mN.m^-1 | – | – | 4,7 mN.m^-1 | – | – | – | – | – | – | –
